Counter-ions that a name gives are not always drawn. {Cy5} = Cy5 fluorescent dye label
Experiments:
[1] = test system: cPM and cMM capture oligonucleotides; experiment: Oligonucleotide microchip SNP discrimination, cPM versus cMM spots; type: binding; details: 30 pM analyte, 30 min incubation, room temperature
Procedure: (§1) Sensor platforms (dimensions 18×18 mm2) of the type described with reference to FIG. 2 we first sonicated twice in chlororform (FLUKA, “purum”) and subsequently twice in isopropanol (Merck, “Uvasol”), each 15 min. […] O-xylene was heated to 75° C. […] (stirring). Subsequently, the platforms were washed three times with fresh acetonitrile (Fluka, “HPLC grade”) each for 15 min. Finally the platforms were dried and stored under vacuum. b. Immobilization of Capture Elements
Two different amino-modified oligonucleotides (capture probes) were printed in a checkerboard-like layout (5×5=25 spots) onto the silanized platforms. A GMS 417 ring-pin arrayer was used for the printing (Genetic Microsystems, Boston, Mass.). The concentration of the oligonucleotides used as capture molecules was 100 nmol/ml. Diameter of the spots was 125 micrometer with 500 micrometer centre-to-centre distance. The 2 oligonucleotides were called cPM (“capture perfect match”) and cMM (“capture mismatch”) and differ only in one base:
cPM and cMM were labeled with an amino group at the 5′ end which enables covalent binding of the oligonucleotides to the epoxy-functionalized platforms. […] Next day the chips were dried and then washed with 1 ml of aqueous 50% urea solution. Alternatively, an aqueous bovine serum albumine solution (BSA, 1 mg/ml) was used. After blocking the chips were flushed with deionized water and then dried with nitrogen flow. c. Detection Set-Up The CCD set-up described in the previous example was used. d. Chip Cartridge The cartridge described in the previous example was used. e. Analytes/Samples […]
The concentration of the analyte solutions was 30 pM each. f. […] After 30 min of incubation, the platform was washed with 1 ml of HB and a fluorescence image (“PM” in FIG. 9a) was taken in the resonance position of the chip. Subsequently, the bound fluorescence labeled oligonucleotides were removed (stripped) by injection of 2×1 ml of an aqueous 50% urea solution with 2 min of delay between the injections. After additional 2 min the chip was washed by injection of 2×1 ml HB with 2 min delay between the injections and a fluorescence image (“regeneration” in FIG. 9b) was taken in the resonance position of the chip. […] After 30 min of incubation, the platform was again washed with 1 ml of 1B and a fluorescence image (“MM” in FIG. 9c) was taken in the resonance position of the chip. […] Data Processing The mean intensity of the 2 different groups of capture spots (cPM and cMM) was calculated for both experiments (incubation of 30 pM PM analyte and 30 pM MM analyte). In addition, the difference of the mean intensity cPM-cMM and the ratio cPM/cMM was calculated. h. […]

[2] = test system: cMM (capture mismatch) oligonucleotide; experiment: Oligonucleotide microchip hybridization (SNP discrimination), cMM capture spots; type: binding; details: 30 pM analyte, 30 min incubation, room temperature, fluorescence at resonance position
Procedure: as §1
(§2) Two different amino-modified oligonucleotides (capture probes) were printed in a checkerboard-like layout (5×5=25 spots) onto the silanized platforms. […]
(§3) The concentration of the analyte solutions was 30 pM each. f. […] After 30 min of incubation, the platform was washed with 1 ml of HB and a fluorescence image (“PM” in FIG. 9a) was taken in the resonance position of the chip. Subsequently, the bound fluorescence labeled oligonucleotides were removed (stripped) by injection of 2×1 ml of an aqueous 50% urea solution with 2 min of delay between the injections. After additional 2 min the chip was washed by injection of 2×1 ml HB with 2 min delay between the injections and a fluorescence image (“regeneration” in FIG. 9b) was taken in the resonance position of the chip. […] After 30 min of incubation, the platform was again washed with 1 ml of 1B and a fluorescence image (“MM” in FIG. 9c) was taken in the resonance position of the chip. […]

[3] = test system: cPM (capture perfect match) oligonucleotide; experiment: Oligonucleotide microchip hybridization (SNP discrimination), cPM capture spots; type: binding; details: 30 pM analyte, 30 min incubation, room temperature, fluorescence at resonance position
Procedure: as §1, §2, §3

CYP 450 2B1 (rat) = experiment: Gene expression analysis on ER chip: CYP 450 induction in rat liver; details: rat liver cDNA, 80 mg/kg daily on 4 consecutive days, normalized treated/control, mean of 10 replicates
Procedure: (§4) Sensor platforms (dimensions 18×18 mm^2) of the type described with reference to FIG. 2 wee first sonicated twice in chloroform (FLUKA, “purriss.”) and subsequently twice in isopropanol (Merck, “Uvasol”); each for 15 min. The platform were then dried in vacuum and cleaned in a UV cleaner for 30 min (Boeckel industries Inc, model 135500). O-xylene was heated to 75° C. (stirring) and 2% v/v 3-glycidoxypropyl trimethoxysilane (Fluka, “purum”) as well as 0.2% v/v N-ethyldiisopropylamine (Fluka, “purum”) were added to the heated solvent (stirring). The platforms were mounted into racks and then incubated for 7 h in the solution at 75° C. (stirring). Subsequently, the platforms were sonicated three times in fresh acetonitrile (Fluka, “HPLC grade”), each for 15 min. The platforms were then sonicated in a solution of 2% v/v 3-amino-1-propanol (Fluka, “purum”) in acetonitrile for 15 min and then incubated in the same solution over night at room temperature (stirring). Next day, the platforms were first sonicated three times for 15 min in fresh isopropanol (Fluka, “HPLC grade”) and then three times for 15 min in flesh methanol (Merck, “Uvasol”). Finally, the platforms were dried and stored in vacuum. b) Immobilization of Recognition Elements Arrays consisting of 10 different cDNAs (each cDNA 10 replicates: CYP 450 1A1, CYP 450 2B1 EST., CYP 450 2B1, CYP 450 2B2, CYP 450 3A1 human, CYP 450 3A2, CYP 450 4A1, β-actin, GAPDH, external standard) were printed on the platforms with an ink-jet printer (Microdrop GmbH, Norderstedt, Germany). The concentration of the cDNA solutions was 50 ng/μL. The diameter (10 ink-jet droplets/position) was about 250 μm and pitch of the spots was about 500 μm. Therefore, the overall dimension of the 10×10 arrays was about 5×5 mm^2. The arrays were printed in the centre of the platforms with the dimensions (18×18 mm^2). Subsequently, the platforms were incubated over night in a closed container in saturated water vapor atmosphere. Next day, the incubated chips can be baked for a defined period, say 1 minute at 80° C.

GAPDH (rat) = experiment: as above; details: rat liver cDNA, 80 mg/kg daily on 4 consecutive days, normalized treated/control, mean of 10 replicates
Procedure: as §4

CYP 450 4A1 (rat) = experiment: as above; details: rat liver cDNA, 80 mg/kg daily on 4 consecutive days, normalized treated/control, mean of 10 replicates
Procedure: as §4

CYP 450 2B1 EST.(rat) = experiment: as above; details: rat liver cDNA, 80 mg/kg daily on 4 consecutive days, normalized treated/control, mean of 10 replicates
Procedure: as §4

CYP 450 2B2 (rat) = experiment: as above; details: rat liver cDNA, 80 mg/kg daily on 4 consecutive days, normalized treated/control, mean of 10 replicates
Procedure: as §4

CYP 450 1A1 (rat) = experiment: as above; details: rat liver cDNA, 80 mg/kg daily on 4 consecutive days, normalized treated/control, mean of 10 replicates
Procedure: as §4

β-actin (rat) = experiment: as above; details: rat liver cDNA, 80 mg/kg daily on 4 consecutive days, normalized treated/control, mean of 10 replicates
Procedure: as §4

CYP 450 3A2 (rat) = experiment: as above; details: rat liver cDNA, 80 mg/kg daily on 4 consecutive days, normalized treated/control, mean of 10 replicates
Procedure: as §4

CYP 450 3A1 (human) = experiment: as above; details: rat liver cDNA, 80 mg/kg daily on 4 consecutive days, normalized treated/control, mean of 10 replicates
Procedure: as §4

Cy5-5′GTGTTAAGGTGT3′ (NTGTTAAGGTGT; 5' {Cy5}, sugars by position, backbone and the base at N not given here) [PM]
difference of the mean intensity cPM − cMM [1]: 1116 counts
ratio cPM/cMM of mean intensity [1]: 48
mean intensity, cMM spots [2]: 24 counts
mean intensity, cPM spots [3]: 1140 counts

Cy5-5′GTGTTGAGGTGT3′ (NTGTTGAGGTGT; 5' {Cy5}, sugars by position, backbone and the base at N not given here) [MM]
difference of the mean intensity cPM − cMM [1]: −1371 counts
ratio cPM/cMM of mean intensity [1]: 0.34
mean intensity, cMM spots [2]: 2075 counts
mean intensity, cPM spots [3]: 704 counts

CCC1(c2ccccc2)C(=O)NC(=O)NC1=O [phenobarbital, sodium salt]
Fold change CYP 450 2B1 (rat) (CYP 450 2B1 (rat)): 25
Fold change GAPDH (rat) (GAPDH (rat)): 2.3
Fold change CYP 450 4A1 (rat) (CYP 450 4A1 (rat)): 1.6
Fold change CYP 450 2B1 EST.(rat) (CYP 450 2B1 EST.(rat)): 16
Fold change CYP 450 2B2 (rat) (CYP 450 2B2 (rat)): 32
Fold change CYP 450 1A1 (rat) (CYP 450 1A1 (rat)): 1.6
Fold change β-actin (rat) (β-actin (rat)): 2.1
Fold change CYP 450 3A2 (rat) (CYP 450 3A2 (rat)): 2.5
Fold change CYP 450 3A1 (human) (CYP 450 3A1 (human)): 3.2
